Source: patent publication US9060541B2, “Sterilizer for foods” (Kawakami Co., Ltd., priority 2009, dated 2015)
Where two headings read alike, the source gives them in different places.

Key:
Type in all cases: cell-based
Parameters in all cases: key: D: There is no sterilization effect.; C: There is a sterilization effect in step (1) but no sterilization effect in step (2).; B: There is a sterilization effect up to step (2) but no sterilization effect in step (3).; A: There is a sterilization effect up to step (3)
[1] = system: Campylobacter coli JCM 2529; assay: Comparison test of sterilization effects against various food poisoning microbes
[2] = system: Candida albicans NCPF 3179; assay: as above
[3] = system: Campylobacter jejuni subsp. Jejuni JCM2013; assay: as above
[4] = system: Vibrio fluvialis KX-F24; assay: as above
[5] = system: Vibrio mimicus KX-M5; assay: as above
[6] = system: Salmonella serotype Enteritidis KX-S148; assay: as above
[7] = system: Aeromonas hydrophila KX-A428; assay: as above
[8] = system: Enterohemorrhagic Escherichia coli O157:H7 EDL 933
[9] = system: Pseudomonas anguilliseptica NCMB1950; assay: Comparison test of sterilization effects against various food poisoning microbes
[10] = system: Vibrio cholerae O1 NIH 41
[11] = system: Clostridium perfringens NCTC8237
[12] = system: Vibrio cholerae O139 MO45
[13] = system: Salmonella serotype Kentucky KX-S149; assay: Comparison test of sterilization effects against various food poisoning microbes
[14] = system: Enterotoxigenic Escherichia coli RIMD 0509267; assay: as above
[15] = system: Vibrio cholerae non-O1 non-O139 KX-N105
[16] = Table 7, test microbe solution without yeast extract
[17] = Table 8, yeast extract 4 weight % blended in test microbe solution

Compound | Sterilization effect [1, 16] | Sterilization effect [1, 17] | Sterilization effect [2, 16] | Sterilization effect [2, 17] | Sterilization effect [3, 16] | Sterilization effect [3, 17] | Sterilization effect [4, 16] | Sterilization effect [4, 17] | Sterilization effect [5, 16] | Sterilization effect [5, 17] | Sterilization effect [6, 16] | Sterilization effect [6, 17] | Sterilization effect [7, 16] | Sterilization effect [7, 17] | Sterilization effect [9, 16] | Sterilization effect [9, 17] | Sterilization effect [10, 16] | Sterilization effect [10, 17] | Sterilization effect [11, 16] | Sterilization effect [11, 17] | other results
CCO [EtOH 30%, ethanol] | B | B | B | C | B | B | C | C | C | C | C | C | B | C | B | B | B | C | D | D | Sterilization effect [8]: D; Sterilization effect [12, 16]: B; Sterilization effect [12, 17]: C; Sterilization effect [13, 16]: C; Sterilization effect [13, 17]: C; Sterilization effect [14, 16]: D; Sterilization effect [14, 17]: D; Sterilization effect [15, 16]: C; Sterilization effect [15, 17]: C
[Na+].[O-]Cl [S.H 150 ppm, sodium hypochlorite] | A | C | A | D | A | C | A | D | A | D | A | D | A | D | A | D | A | D | A | D | Sterilization effect [8, 16]: A; Sterilization effect [8, 17]: D; Sterilization effect [12, 16]: A; Sterilization effect [12, 17]: D; Sterilization effect [13, 16]: A; Sterilization effect [13, 17]: D; Sterilization effect [14, 16]: A; Sterilization effect [14, 17]: D; Sterilization effect [15, 16]: A; Sterilization effect [15, 17]: D
